Data taken from PMC12775434, “Ultra-large virtual screening unveils potent agonists of the neuromodulatory orphan receptor GPR139” (Nature Communications, 2025).
Values after ≈ are worked out from the molar mass of the structure shown. Values joined by “and” are separate entries in the source; they are usually repeats but may differ in a detail not shown here. Identical values can stand only once.

Assays:
Kinetic solubility = format: physicochemical; conditions: aqueous buffer, kinetic from dmso stock; 100 mM potassium phosphate buffer, 37 °C
Procedure: Test compound was added to 100 mM potassium phosphate buffer and incubated at 37 °C for at least 20 h in a heater-shaker. After incubation, the samples were centrifuged at 3000 × g at 37 °C for 30 min to pellet insoluble material and an aliquot of the supernatant was taken for analysis. After dilution of the sample, the concentration of dissolved compound was quantified by liquid chromatography coupled to triple quadrupole mass spectrometry (LC-MS/MS).

GPR139 (Gi3 activation) = biological target: T1, GPR139 (Gi3 activation) (Homo sapiens, UniProt Q6DWJ6); assay: BRET G protein activation (dissociation) assay, Gi3, HEK293A; format: cell-based; conditions: for G protein activation, Gi3: individual replicates
T1 construct: expressed in transfected cells; host or cells: HEK293A (transient, Lipofectamine 2000)
T1 sequence (Q6DWJ6 1-353): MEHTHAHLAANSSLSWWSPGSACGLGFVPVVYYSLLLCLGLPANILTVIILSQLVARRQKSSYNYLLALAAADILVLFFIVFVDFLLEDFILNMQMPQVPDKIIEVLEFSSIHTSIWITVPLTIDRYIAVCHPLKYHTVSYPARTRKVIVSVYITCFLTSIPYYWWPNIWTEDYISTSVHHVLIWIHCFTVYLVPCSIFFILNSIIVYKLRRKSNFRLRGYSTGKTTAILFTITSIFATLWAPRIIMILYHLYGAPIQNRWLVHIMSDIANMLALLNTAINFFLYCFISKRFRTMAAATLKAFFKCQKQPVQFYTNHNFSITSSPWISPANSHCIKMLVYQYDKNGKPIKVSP
Procedure: (§1) Primary screening and pharmacological characterization of compounds were performed using a CHO-K1 cell line that stably expresses human GPR139 (GPR139-CHOk1). The GPR139-CHOk1 cell line was kindly provided by H. Lundbeck A/S, Denmark[24]. GPR139-CHOk1 cells were grown in Ham’s F-12 Kaighn’s Modification Medium (ThermoFisher #21127030) supplemented with 10% dialyzed fetal bovine serum (US origin, ThermoFisher #26400044), 100 units/mL Penicillin-Streptomycin (ThermoFisher #15140122), and 1 mg/mL Geneticin (ThermoFisher #11811031). […] M1R-CHOk1 cells were purchased from The Missouri S&T cDNA Resource Center (#CEM100TN00). M1R-CHOk1 cells were grown in Ham’s F12 Medium (ThermoFisher #21765029) supplemented with 10% fetal bovine serum (Brazilian origin, ThermoFisher #10270106), 100 units/mL Penicillin-Streptomycin, and 0.25 mg/mL Geneticin. HEK293A cells transiently transfected with GPR139 were used for additional pharmacological assessment of signaling pathways activated by GPR139. HEK239A cells were generously provided by Dr. Asuka Inoue, Tohoku University, Japan. HEK293A cells were grown in Dulbecco’s Modified Eagle Medium (ThermoFisher #31966047) supplemented with 10% dialyzed fetal bovine serum and 100 units/mL Penicillin-Streptomycin. Cell lines were maintained at 37 °C in humidified incubator equilibrated with 5% CO2.
(§2) The G protein dissociation assay developed by the lab of Kirill A. Martemyanov was used to measure the coupling of multiple G proteins by GPR139[57]. The assay was performed as described previously with minor modifications. HEK293A cells were reverse transfected 20–24 h prior to assay. 50,000 cells were plated in each well of white opaque tissue culture treated 96-well plates (PerkinElmer #6005680) previously coated with poly-D-lysine. Transfection solutions were prepared as described, and 10 µL transfection solution was mixed with 100 µL cells in each well. The cells in each well were transfected with 18.9 ng GPR139, 6.3 ng Venus 1-155 Gγ2, 6.3 ng Venus 159-239 Gβ1, 6.3 ng masGRK3ct-NanoLuc and 12.6 ng Gαi2, 12.6 ng Gαi3, 12.6 ng GαoA, 12.6 ng Gαq or 25.2 ng Gα12 using 375 nL Lipofectamine 2000 Transfection Reagent. Transfections with Gαq and Gα12 contained 6.3 ng DNA of the active subunit S1 of pertussis toxin (PTX-S1). Each transfection was normalized to 150 ng total DNA with pcDNA3.1. The BRET biosensors were a kind gift from the Martemyanov lab. On the day of the experiment the cells were washed with HEPES buffer. Test compounds were diluted in HEPES buffer from DMSO stocks (final DMSO concentration of maximally 0.3%). NanoLuc Luciferase substrate NanoGlo—furimazine (Promega #N1120) was diluted 1000-fold (final) in HEPES buffer. NanoGlo and test compounds were added, and measurements were performed after 10 s for Gi3, 15 s for Gi2 and GoA, 20 s for Gq, and 90 s for G12—the timepoint where maximal signal occurred with each G protein, ensuring proper determination of the potency for the G protein coupling. Simultaneous dual emission was measured at 535 nm and 475 nm on LUMIstar Omega Microplate Reader (BMG Labtech) at room temperature. The BRET ratio of 535 nm/475 nm (Venus/NanoLuc), reflecting the dissociation of the G protein heterotrimer, was used to determine the G protein activation. The basal BRET ratio obtained with buffer condition was subtracted from the absolute BRET ratio at a given test compound concentration, and the responses were normalized to the one obtained with 10 µM JNJ-63533054 for the activation of Gi2.
(§3) Pharmacological data and statistical analyses were performed in GraphPad Prism v9–10 (Graphpad Software Inc., San Diego, CA), which are also specifically described in the figure and table legends. […]

GPR139 (Gq activation) = biological target: T2, GPR139 (Gq activation) (Homo sapiens, UniProt Q6DWJ6); assay: BRET G protein activation (dissociation) assay, Gq, HEK293A; format: cell-based; conditions: for G protein activation, Gq: individual replicates
T2 construct: expressed in transfected cells; host or cells: HEK293A (transient, Lipofectamine 2000)
T2 sequence (Q6DWJ6 1-353): T1 sequence (Q6DWJ6 1-353)
Procedure: as §1, §2, §3

[1] = HEK293-A, normalized to JNJ-63533054 (JNJ(S))

## Cc1cscc1-c1nc(CC(=O)N[C@@H](C)c2ccccc2)no1 [1.1(S)]
Kinetic solubility
  solubility kinetic: 13 µM (≈ 4.26 µg/mL)
GPR139 (Gi3 activation); [1]
  Emax: 45 ± 3%
GPR139 (Gi3 activation); Supplementary Table 6, read-out: pEC50 Gi3 (converted)
  EC50: 50.1 nM
GPR139 (Gi3 activation); log [compound] M -4.5
  G protein activation, Gi3: 50 % of JNJ-63533054 at Gi2 and 43 % of JNJ-63533054 at Gi2 and 51 % of JNJ-63533054 at Gi2
GPR139 (Gi3 activation); log [compound] M -5.0
  G protein activation, Gi3: 46 % of JNJ-63533054 at Gi2 and 36 % of JNJ-63533054 at Gi2 and 43 % of JNJ-63533054 at Gi2
GPR139 (Gi3 activation); log [compound] M -5.5
  G protein activation, Gi3: 46 % of JNJ-63533054 at Gi2 and 40 % of JNJ-63533054 at Gi2 and 43 % of JNJ-63533054 at Gi2
GPR139 (Gi3 activation); log [compound] M -6.0
  G protein activation, Gi3: 44 % of JNJ-63533054 at Gi2 and 36 % of JNJ-63533054 at Gi2 and 42 % of JNJ-63533054 at Gi2
GPR139 (Gi3 activation); log [compound] M -6.5
  G protein activation, Gi3: 37 % of JNJ-63533054 at Gi2 (2×) and 36 % of JNJ-63533054 at Gi2
GPR139 (Gi3 activation); log [compound] M -7.0
  G protein activation, Gi3: 31 % of JNJ-63533054 at Gi2 and 26 % of JNJ-63533054 at Gi2 and 28 % of JNJ-63533054 at Gi2
GPR139 (Gi3 activation); log [compound] M -7.5
  G protein activation, Gi3: 18 % of JNJ-63533054 at Gi2 and 14 % of JNJ-63533054 at Gi2 and 21 % of JNJ-63533054 at Gi2
GPR139 (Gi3 activation); log [compound] M -8.0
  G protein activation, Gi3: 11 % of JNJ-63533054 at Gi2 and 5.42 % of JNJ-63533054 at Gi2 and 10 % of JNJ-63533054 at Gi2
GPR139 (Gq activation); [1]
  Emax: 35 ± 3%
GPR139 (Gq activation); Supplementary Table 6
  EC50: 200 nM
GPR139 (Gq activation); log [compound] M -4.5
  G protein activation, Gq: 35 % of JNJ-63533054 at Gi2 and 45 % of JNJ-63533054 at Gi2 and 30 % of JNJ-63533054 at Gi2
GPR139 (Gq activation); log [compound] M -5.0
  G protein activation, Gq: 36 % of JNJ-63533054 at Gi2 and 38 % of JNJ-63533054 at Gi2 and 28 % of JNJ-63533054 at Gi2
GPR139 (Gq activation); log [compound] M -5.5
  G protein activation, Gq: 32 % of JNJ-63533054 at Gi2 and 38 % of JNJ-63533054 at Gi2 and 27 % of JNJ-63533054 at Gi2
GPR139 (Gq activation); log [compound] M -6.0
  G protein activation, Gq: 30 % of JNJ-63533054 at Gi2 and 34 % of JNJ-63533054 at Gi2 and 26 % of JNJ-63533054 at Gi2
GPR139 (Gq activation); log [compound] M -6.5
  G protein activation, Gq: 21 % of JNJ-63533054 at Gi2 and 30 % of JNJ-63533054 at Gi2 and 16 % of JNJ-63533054 at Gi2
GPR139 (Gq activation); log [compound] M -7.0
  G protein activation, Gq: 11 % of JNJ-63533054 at Gi2 and 15 % of JNJ-63533054 at Gi2 and 8 % of JNJ-63533054 at Gi2
GPR139 (Gq activation); log [compound] M -7.5
  G protein activation, Gq: 2.21 % of JNJ-63533054 at Gi2 and 3.62 % of JNJ-63533054 at Gi2 and 4 % of JNJ-63533054 at Gi2
GPR139 (Gq activation); log [compound] M -8.0
  G protein activation, Gq: -2.13 % of JNJ-63533054 at Gi2 and -0.806 % of JNJ-63533054 at Gi2 and 3.47 % of JNJ-63533054 at Gi2
